# Columns and labels:
# [1] = test system: Jurkat cells; test: Antiproliferation assay (XTT); format: cell-based; conditions: Homo sapiens, 168 h, 7-day incubation, read-out: Cytotoxicity EC50
# Protocol: (§1) Antiproliferation assay. Proliferation inhibition assays for suspension blood cancer cells were performed using an XTT assay kit (Roche). Proliferation inhibition assays for solid tumor cell lines MCF-7, MDA-MB-231, Panc1, Panc28 were performed using an MTT assay (Sigma). The antiproliferation EC50 values were determined using Prism 5 and the reported results were the mean values of at least three independent experiments. The incubation time for compound 1 was 7 days and that for EPZ4777 was 14 days.
# [2] = test system: Molm-13 cells; test: Antiproliferation assay (XTT); format: cell-based
# Protocol: as §1
# [3] = test system: U266 cells; test: Antiproliferation assay (XTT); format: cell-based; conditions: Homo sapiens, U-266, 168 h, 7-day incubation, read-out: Cytotoxicity EC50
# Protocol: as §1
# [4] = test system: HL60 cells; test: Antiproliferation assay (XTT); format: cell-based; conditions: Homo sapiens, HL-60, 168 h, 7-day incubation, read-out: Cytotoxicity EC50
# Protocol: as §1
# [5] = Tolerability in xenograft study (body weight, overt toxicity); format: in vivo
# Protocol: In vivo antitumor activity of compound 1 was evaluated in a commonly used mouse model of MLL-r leukemia, [26]. 10^7 MV4;11 cells in 0.1 mL of saline and Matrigel (1:1) were injected subcutaneously into NOD-SCID mice, which can develop palpable tumors in ~2 weeks.
# In vivo antitumor studies. All of the mouse studies were conducted in strict compliance with an IRB-approved protocol. NOD-SCID mice (4 to 6 weeks old, from Jackson lab) were obtained and maintained under specific pathogen-free conditions. 10^7 MV4;11 cells in medical grade saline and Matrigel (1:1, 0.1 mL) were inoculated subcutaneously and palpable tumors (2-3 mm in diameter) were developed in ~ 2 weeks. Mice were treated with compound 1 (15 mg/kg/day for 10 days) in saline (0.1 mL) administered intraperitoneally. Tumors were measured every 2 days and estimated by using the formula a×b^2/2.
# [6] = test system: nuclear protein levels in Molm-13 cells; test: Western blot of nuclear proteins; format: cell-based; conditions: 3 days
# Protocol: Next, we investigated how compound 1 affects these transcription cofactors in the nucleus, where they regulate gene expression. […] DOT1L inhibitor EPZ4777 [25] reduced the methylation levels of H3K79, but not other proteins (Figure 3B). […] In this regard, despite lack of activity against DOT1L, compound 1 can mimic EPZ4777 to reduce H3K79 methylation.
# Western blot. 3x10^6 cells/well were treated with increasing concentrations of a compound for 3 days and nuclear proteins extracted with the EpiQuik Nuclear Extraction Kit (Epigentek) according to the manufacturer's protocol. Equal amounts of proteins were separated on SDS-PAGE and transferred to PVDF membranes. The blots were probed with primary antibodies, followed by anti-rabbit or anti-mouse IgG (Thermo Scientific) secondary antibodies. The primary antibodies used in this research were MBP Mouse mAb (#2396, Cell signaling), DOT1L Rabbit mAb (#77087, Cell signaling), MLL-N Rabbit mAb (#14689, Cell signaling), ENL Rabbit mAb (#14893, Cell signaling), Di-Methyl-Histone H3K79 Rabbit mAb (#5427, Cell signaling), Mono-Methyl-Histone H3K79 Rabbit mAb (#9398, Cell signaling), Histone H3 Rabbit mAb (#4499, Cell signaling), AF4 Rabbit pAb (#NBP1-28705, Novusbio) and AFF4 Rabbit pAb (#ab103586, Abcam).
# [7] = test system: MLL-r leukemia cells; test: Cytospin/Wright-Giemsa staining; format: cell-based; conditions: 5 μM for 5 days
# Protocol: Cytospin/Wrigth-Giemsa staining. The MV4;11 and Molm-13 cells were plated in 6-well plates (2.5 mL/well) at an initial concentration of 10^5 cells/mL and treated with a compound or DMSO at 37 °C in a 5% CO2 incubator for 5 days. Cytospins were performed to smear cells (100 µL, 10^6 cells/mL) on slide. After air dry, the slides were Wright's-Giemsa stained and air-dried for over 30 mins before examination.
# [8] = biological target: T1, AF9-AFF4 interaction (Homo sapiens, UniProt P42568); test: Alpha assay, AF9-AFF4 interaction; format: binding; conditions: read-out: IC50, inhibition of AF9-AFF4 interaction
# T1 construct: cDNA for human AF9 AHD domain (475-568) and ENL AHD domain (489-559) was synthesized; made in house; host or cells: E. coli BL21(DE3)
# Protocol: (§2) ENL is also a major MLL fusion partner (~10%). The AHD domains of human ENL and AF9 share a high homology with 82% identity and 89% similarity (Figure S1A). […] Our attempts to develop an Alpha assay for ENL-DOT1L failed. […] Compound 1's activity against ENL-DOT1L was therefore not determined.
# (§3) Alpha assays. Alpha assays were developed using Perkin-Elmer AlphaLisa anti-MBP kit, which contains streptavidin donor beads and anti-MBP acceptor beads. The assay was performed using a MBP-protein (5 nM), a biotinylated peptide (40 nM), and increasing concentrations of a compound in 25 µL buffer (PBS with 0.5 % BSA, pH 7.5) in 384-well plates according to the manufacturer's protocol and measured with a Tecan SPARK microplate reader. Data were imported into Prism (version 5.0), and IC50 values from 3 independent experiments with standard deviation were obtained by using a standard dose-response curve fitting.
# [9] = test system: HoxA9, Meis1 and Myc expression in MV4;11 cells; test: qPCR of MLL target genes; format: cell-based; conditions: 4 days
# Protocol: (§4) Next, compound 1 was tested for its ability to change expression of characteristic MLL-r leukemia genes HoxA9, Meis1 and Myc. Myc is also overexpressed in a broad range of AML and other cancers. […] (Figure S5), presumably because SEC is not recruited there.
# (§5) RNA extraction and Quantitative real-time PCR (qPCR). 10^5 cells/ml were incubated with a compound for 4 days and the RNA was extracted using RNeasy mini kit (#74104, Qiagen). 100-1000 ng of total RNA was reverse transcribed using iScript™ Reverse Transcription Supermix (Bio-Rad) using the manufacturer's protocol. Quantitative real-time PCR was carried out using Fast SYBR Green Master Mix (Applied Biosystems) according to the manufacturer's instructions. Measurements were performed in triplicate, using GAPDH as the reference gene. Real-time PCR was performed using Biosystems Step One Plus detection system. The following sequences of primers are used: […]
# [10] = test system: HoxA9, Meis1 and Myc expression in Molm-13 cells; test: qPCR of MLL target genes; format: cell-based; conditions: 4 days
# Protocol: as §4, §5
# [11] = biological target: T2, ENL-AFF4 interaction (Homo sapiens, UniProt Q03111); test: Alpha assay, ENL-AFF4 interaction; format: binding; conditions: read-out: IC50, inhibition of ENL-AFF4 interaction
# T2 construct: ENL AHD domain (489-559) was synthesized (by Genscript) and inserted into the pMAL c5X expression plasmid; made in house; host or cells: E. coli BL21(DE3)
# Protocol: as §2, §3
# T2 sequence (Q03111 489-559): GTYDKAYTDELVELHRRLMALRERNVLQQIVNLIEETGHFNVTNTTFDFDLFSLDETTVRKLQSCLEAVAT
# T1 sequence (P42568 475-568): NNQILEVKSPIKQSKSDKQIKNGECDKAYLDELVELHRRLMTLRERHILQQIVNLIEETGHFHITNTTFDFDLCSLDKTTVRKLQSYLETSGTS
smiles,measurement,setting,value
CC(C)(C)c1ccc(-n2cc(C(=O)NC3CCNCC3)nc2-c2ccccc2)cc1 [Compound 1],EC50,[1],9.7 ± 0.3 µM
same,Inhibition of cell proliferation,"[2]; 10 μM, Day-2 or 3",did not significantly inhibit
same,inhibition at 10 µM,"[2]; Homo sapiens, 10 μM, Day-5, read-out: Inhibition of cell proliferation",> 90%
same,EC50,"[2]; Homo sapiens, 168 h, 7-day incubation, read-out: Cytotoxicity EC50",4.9 ± 0.1 µM
same,EC50,[3],7.9 ± 0.4 µM
same,EC50,[4],7.3 ± 0.1 µM
same,Body weight,[5]; 15 mg/kg for Day 1-10,did not cause significant weight losses
same,Overt toxicity,"[5]; mouse model of MLL-r leukemia, 15 mg/kg",without overt toxicity
same,"Nuclear levels of DOT1L, H3K79me1 and me2, ENL and AFF4",[6],"reduced the nuclear levels of DOT1L, H3K79me1 and me2, ENL and AFF4"
same,Nuclear levels of MLL-AF9,[6],unaffected
same,Cell phenotype by Giemsa staining,[7],more differentiated phenotype with reduced nucleus
same,IC50,[8],2.5 ± 0.1 µM
same,"Expression of MLL target genes HoxA9, Meis1 and Myc",[9],dose-dependently suppressed expression
same,"Expression of MLL target genes HoxA9, Meis1 and Myc",[10],dose-dependently suppressed expression
same,IC50,[11],3.3 ± 0.3 µM
